In patent publication US4053478A, “2,5-Di-substituted 4-oxazolealkanoic acids and esters” (Yoshitomi Pharmaceutical Industries, Ltd., priority 1974, dated 1977):

Key:
[1] = tested on: bleeding time induced by platelet thrombi; assay: Anti-thrombotic action: bleeding time induced by platelet thrombi, tail vein puncture (Table 4); assay type: in vivo; conditions: oral, one hour after administration, male mice
Method: The bleeding time induced by platelet thrombi was compared with that of the control group, and the rate of prolongation was calculated as an index of anti-thrombotic activity.

[2] = Acute toxicity, mouse (Table 5); conditions: in vivo, oral, lethality within two days, read-out: LD50 per os, Mouse
Method: (§1) The test compound was orally administered to groups each of 5 male mice and rats respectively. The LD50 was calculated from the lethal rate (50%) within two days after administration of the test compound.

[3] = Acute toxicity, rat (Table 5); conditions: in vivo, oral, lethality within two days, read-out: LD50 per os, Rat
Method: as §1

[4] = tested on: serum cholesterol level; assay: Hypolipidemic action: dietary hyperlipidemia in male mice (Table 2); assay type: in vivo, dd-strain male mice; conditions: 5 days
Method: ii. Dietary hyperlipidemia in male mice (Table 2)
dd-Strain male mice weighing 20-25 g. were used. Each group was composed of 8 mice. Animals were fed with NMF food (Oriental Yeast Co., Tokyo) containing 1% of cholesterol, 0.2% of cholic acid and 5% of olive oil, and the serum cholesterol level was measured by the use of an autoanalyzer after 5 days administration of the test compound. The levels in the test group was compared with that in the control group given the same diet.

[5] = tested on: serum cholesterol and triglyceride levels; assay: Hypolipidemic action: male rats with normal serum lipid (Table 1); assay type: in vivo, Wistar strain male rats; conditions: 100 mg/kg/day, oral (gastric tube), 5 days, vs control
Method: i. Male rats with normal serum lipid (Table 1)
Each test group was composed of more than 5 rats. The test compound was orally given by a gastric tube. Serum cholesterol and triglyceride levels were measured by the standard methods using an autoanalyzer (Technicon Inc.). The levels in the control (placebo) group were considered as 100% and the reduction (%) in the test group was calculated.

[6] = tested on: serum cholesterol level; assay: Hypolipidemic action: Triton hyperlipidemia in male mice (Table 3); assay type: in vivo, dd-strain male mice; conditions: intraperitoneal, 18 hours after Triton
Method: iii. Triton hyperlipidemia in male mice (Table 3) Each group was composed of eight dd-strain male mice weighing 20-25 g. Immediately after intraperitoneal administration of the test compound to the animals, Triton WR-1339 was intraveniously given. Eighteen hours after Triton administration, the serum cholesterol level was measured and compared with that of the control group treated in the same way.

| SMILES | Prolongation Rate (%) of the Bleeding Time ([1]; 12.5 mg/kg/day) [%] | Prolongation Rate (%) of the Bleeding Time ([1]; 25 mg/kg/day) [%] | Prolongation Rate (%) of the Bleeding Time ([1]; 50 mg/kg/day) [%] | LD50 at 48 h [2] [mg/kg] | LD50 at 48 h [3] [mg/kg] | Lowering Rate (%) of Serum Cholesterol Level ([4]; 100 mg/kg/day) [%] | Lowering Rate (%) of Serum Cholesterol Level [5] [%] | Lowering Rate (%) of Serum Triglyceride Level [5] [%] | Lowering Rate (%) of Serum Cholesterol Level ([6]; 25 mg/kg/day) [%] | Lowering Rate (%) of Serum Cholesterol Level ([6]; 100 mg/kg/day) [%] | Lowering Rate (%) of Serum Cholesterol Level ([4]; 50 mg/kg/day) [%] | Prolongation Rate (%) of the Bleeding Time ([1]; 100 mg/kg/day) [%] | Lowering Rate (%) of Serum Cholesterol Level ([6]; 50 mg/kg/day) [%] |
| --- | --- | --- | --- | --- | --- | --- | --- | --- | --- | --- | --- | --- | --- |
| CC(=O)Oc1ccccc1C(=O)O [Acetylsalicylic Acid, reference compound] | 22 | 65 | 268 |  |  |  |  |  |  |  |  |  |  |
| CCOc1oc(-c2ccc(Cl)cc2)nc1CC(=O)OCc1cccnc1 [B, 3-pyridylmethyl 2-p-chlorophenyl-5-ethoxy-4-oxazoleacetate] |  |  |  | > 4000 | > 4000 | 43 | 22 | 41 |  |  |  |  |  |
| CCOC(=O)Cc1nc(-c2ccc(Cl)c(Cl)c2)oc1OCC [C, ethyl 2-(3,4-dichlorophenyl)-5-ethoxy-4-oxazoleacetate] |  |  |  | 2000 | > 4000 |  |  |  | 18 | 35 |  |  |  |
| CCOC(=O)C(C)(C)Oc1ccc(Cl)cc1 [Clofibrate, reference compound] |  |  |  | 1500 | 2300 | 16 | 31 | 35 |  | 10 | 0 | 38 |  |
| CCOC(=O)Cc1nc(-c2ccc(Cl)cc2)oc1OCC [Compound A, ethyl 2-p-chlorophenyl-5-ethoxy-4-oxazoleacetate] |  |  |  | 4000 | > 4000 | 41 | 25 | 45 |  | 32 | 21 |  | 26 |
| CCOc1oc(-c2ccncc2)nc1CCC(=O)O [D, 3-[2-(4-pyridyl)-5-ethoxy-4-oxazole]propionic acid] | 107 | 209 | 321 | > 2000 | > 2000 |  |  |  |  |  |  | 439 |  |
